Assay results as given in PMC5164911, “Comparative Analysis of the Interaction between Different Flavonoids and PDIA3” (Oxidative Medicine and Cellular Longevity, 2016).

Key:
[1] = biological target: T1, PDIA3 (Homo sapiens, UniProt P30101); test: DNA binding activity by EMSA; type: biochemical; conditions: flavonoid 0 to 50 μM
T1 construct: made in house; host or cells: E. coli BL21 (vector pET21)
T1 sequence (P30101 25-505): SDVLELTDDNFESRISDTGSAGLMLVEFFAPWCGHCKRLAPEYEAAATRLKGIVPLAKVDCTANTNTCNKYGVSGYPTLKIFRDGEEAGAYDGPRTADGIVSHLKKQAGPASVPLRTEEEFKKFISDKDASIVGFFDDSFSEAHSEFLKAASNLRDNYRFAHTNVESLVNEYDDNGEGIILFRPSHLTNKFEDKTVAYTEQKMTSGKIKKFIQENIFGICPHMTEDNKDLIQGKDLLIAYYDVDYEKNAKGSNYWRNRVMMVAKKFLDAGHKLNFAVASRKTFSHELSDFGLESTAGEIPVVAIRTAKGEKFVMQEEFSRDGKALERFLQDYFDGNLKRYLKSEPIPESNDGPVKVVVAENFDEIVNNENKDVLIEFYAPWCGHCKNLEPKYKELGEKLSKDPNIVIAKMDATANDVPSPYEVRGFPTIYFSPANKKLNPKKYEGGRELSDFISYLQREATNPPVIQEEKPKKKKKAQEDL
Experimental: EMSA assay was performed using a 79-bp […] obtained by PCR as previously described. Amplified DNA was end-labeled by using 5-fluorescein-modified primers. 10 ng of DNA fragment was incubated with 1 μg of PDIA3 or a′ domain, in presence of increasing concentration of flavonoids (from 0 to 50 μM). Controls were performed using DNA alone and in the presence of each flavonoid. All tests were performed in 20 μl mixtures containing 20 mM Tris-HCl, pH 7.5, 50 mM NaCl, and 10% (v/v) glycerol. Samples were incubated for 1 hour at 25°C and then resolved on 5% polyacrylamide gels in 0,25% TBE buffer (22.5 mM Tris-borate, 5 mM EDTA, pH 8.3) at 150 V. Gel images were recorded using a ChemiDoc MP Imaging System (BioRad) equipped with an epi-blue excitation lamp and a 520 nm emission filter.

[2] = biological target: T2, PDIA3 a′ domain (residues 377–505) (Homo sapiens, UniProt P30101); test: Fluorescence quenching titration of isolated a′ domain; type: binding; conditions: a′ domain 1 μM, reduced form; data not shown
T2 construct: second redox-active domain (a′ domain, residues 377–505); made in house; host or cells: E. coli BL21 (vector pET29)
T2 sequence (P30101 377-505): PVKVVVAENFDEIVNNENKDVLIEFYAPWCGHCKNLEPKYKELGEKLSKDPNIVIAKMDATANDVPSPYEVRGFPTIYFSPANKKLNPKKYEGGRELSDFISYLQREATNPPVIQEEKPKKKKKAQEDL
From the text: Human recombinant PDIA3 was cloned and expressed in E. coli strain BL21 using the expression vector pET21 (Novagen) as previously described. The coding sequence for the second redox-active domain (a′ domain, residues 377–505) was amplified by PCR as previously described and cloned in the expression vector pET29 (Novagen). Recombinant proteins were expressed in E. coli strain BL21 and purified by ammonium sulphate fractionation, ion exchange, and heparin chromatography. Protein purification was evaluated by SDS-PAGE and concentration was determined spectrophotometrically (PDIA3 ℇ 280 reduced form = 44,810 M^−1 cm^−1; a′ domain ℇ 280 reduced form = 14,400 M^−1 cm^−1).
Quantitative analysis of the interaction between individual flavonoids and PDIA3 was performed by fluorimetric titration. Fluorescence spectra were recorded using a SPEX-FluoroMax spectrofluorimeter (Horiba Scientific) from 300 to 500 nm with excitation at 290 nm using a 10 mm path length quartz fluorescence cuvette and under continuous stirring. The excitation and emission slits were both set to 5 nm and scan speed was 120 nm·min^−1. […] Fluorescence spectra of appropriate blanks (flavonoids without proteins) were recorded under the same experimental conditions and subtracted from the corresponding flavonoid-protein system to correct the fluorescence background. Fluorescence intensities recorded at 338 nm were used for quenching analysis and data obtained for each flavonoid are the average of at least three independent titration experiments.
Quenching analysis was performed on PDIA3 (0.5 μM), in the reduced form, by adding stepwise increasing concentration of each molecule and recording the protein fluorescence spectra. […] Quenching effect on protein and Stern-Volmer quenching constant (K SV) were calculated from the fluorescence intensities at 338 nm of protein alone (F 0) and in the presence of increasing concentration of each ligand molecule (F) using the Stern-Volmer equation [40]: (1) F0/F=1+KSVL, where L is the ligand concentration. […]

[3] = biological target: T1, PDIA3; test: Differential scanning fluorimetry (thermal stability, SYPRO Orange); type: binding; conditions: flavonoid up to 50 μM, mainly at the highest concentration
Experimental: Protein stability was tested by the fluorescence-based thermal stability assay or differential scanning fluorimetry (DSF) developed by Pantoliano and coworkers. DSF records the fluorescence emission signal from the binding of a dye (SYPRO orange) to the exposed hydrophobic patches upon protein unfolding. Fluorescence measurements were performed using a CFX96 Connect RT-PCR instrument (BioRad). 18 μl aliquots of protein solution (1 μM), freshly diluted in Tris Buffered saline (50 mM TrisHCl, pH 8.0, 150 mM NaCl) containing 0.1 mM DTT, 0.2 mM EDTA, and 1 : 1000 dilution of SYPRO Orange (50 mM stock solution in DMSO), were distributed in a 96-well plate. Sample wells were addition of increasing concentration (up to 50 μM) of individual flavonoid by adding 2 μl of 10-fold concentrated stock solutions freshly prepared. As control, the protein solution was added with 2 μl of the dilution buffer. A melting point analysis was recorded increasing the temperature from 20 to 95°C with an increment of 0.5°C and reading, at each temperature, the fluorescence in fluorescence resonance energy transfer mode (FRET). Each measure was the average of three sample wells reading and each DSF experiment was repeated at least three times. To calculate T m values, DSF data from the melting curve were exported and fitted to Boltzman equation using GraphPad software. Effect of flavonoids was evaluated comparing the T m values in presence and absence of each molecule.

Row | Compound | Effect on DNA binding activity of PDIA3 [1] | Affinity for isolated a′ domain [2] | Effect on PDIA3 stability (T m) [3]
1 | COc1ccc(-c2cc(=O)c3c(O)c(OC)c(OC)cc3o2)cc1O [Eupatorin, eupatorin] | did not significantly affect and None | greatest affinity | –
2 | O=c1cc(-c2ccc(O)cc2)oc2cc(O)cc(O)c12 [Apigenin, apigenin] | – | greatest affinity | similar, but less pronounced, effect
3 | COc1ccc(-c2cc(=O)c3c(OC)c(OC)c(OC)cc3o2)cc1O [Eupatorin-5-methyl ether, eupatorin-5-methyl-ether] | did not significantly affect | greatest affinity | –
